The results in this text go back to US7851510B2, “Gossypol derivatives, production method thereof and uses of same” (Centre National de la Recherche Scientifique (C.N.R.S.), priority 2004, dated 2010).

This assay concerns KB tumour cell line. The assay is described as follows: Cytotoxicity vis-à-vis the KB tumour cell line. It counts as cell-based. The conditions noted are these: Homo sapiens. The procedure: The cytotoxicity of the compound vis-à-vis the KB tumour cell line was measured as is described in Dao et al. (2003) Bioorg. Med. Chem. 11:2001-2006.

Consider `CC1=C(C2=C(C)C(=O)c3c(c(CO)c(O)c(O)c3C(C)C)C2=O)C(=O)c2c(CO)c(O)c(O)c(C(C)C)c2C1=O` [(5), 6,7,6′,7′-tetrahydroxy-8,8′-bis-hydroxymethyl-5,5′-diisopropyl-3,3′-dimethyl-[2,2′]binaphthalenyl-1,4,1′,4′-tetraone], for which half-maximal inhibition (IC50) was put at 1 µM.
As for `CC1=C(C2=C(C)C(=O)c3c(c(CSc4ccccc4)c(O)c(O)c3C(C)C)C2=O)C(=O)c2c(CSc3ccccc3)c(O)c(O)c(C(C)C)c2C1=O` [(7), 6,7,6′,7′-tetrahydroxy-5,5′-diisopropyl-3,3′-dimethyl-8,8′-bis-phenylsulphanylmethyl-[2,2′]binaphthalenyl-1,4,1′,4′-tetraone], the figure is 4 µM; as for `CC1=C(C2=C(C)C(=O)c3c(c(CSc4ccc(C)cc4)c(O)c(O)c3C(C)C)C2=O)C(=O)c2c(CSc3ccc(C)cc3)c(O)c(O)c(C(C)C)c2C1=O` [(8), 6,7,6′,7′-tetrahydroxy-5,5′-diisopropyl-3,3′-dimethyl-8,8′-bis-p-tolylsulphanylmethyl-[2,2′]binaphthalenyl-1,4,1′,4′-tetraone], 6.5 µM.
As for `COc1ccc(SCc2c(O)c(O)c(C(C)C)c3c2C(=O)C(C2=C(C)C(=O)c4c(c(CSc5ccc(OC)cc5)c(O)c(O)c4C(C)C)C2=O)=C(C)C3=O)cc1` [(9), 6,7,6′,7′-tetrahydroxy-5,5′-diisopropyl-8,8′-bis-(4-methoxy-phenylsulphanylmethyl)-3,3′-dimethyl-[2,2′]binaphthalenyl-1,4,1′,4′-tetraone], the figure is 6.5 µM.
The result for `CC1=C(C2=C(C)C(=O)c3c(c(CSc4ccc(Cl)cc4)c(O)c(O)c3C(C)C)C2=O)C(=O)c2c(CSc3ccc(Cl)cc3)c(O)c(O)c(C(C)C)c2C1=O` [(10), 6,7,6′,7′-tetrahydroxy-5,5′-diisopropyl-8,8′-bis-(4-chloro-phenylsulphanylmethyl)-3,3′-dimethyl-[2,2′]binaphthalenyl-1,4,1′,4′-tetraone] reads 3 µM.
As for `CC1=C(C2=C(C)C(=O)c3c(c(CSc4c(F)c(F)cc(F)c4F)c(O)c(O)c3C(C)C)C2=O)C(=O)c2c(CSc3c(F)c(F)cc(F)c3F)c(O)c(O)c(C(C)C)c2C1=O` [(11), 6,7,6′,7′-tetrahydroxy-5,5′-diisopropyl-8,8′-bis-(2,3,5,6-tetrafluoro-phenylsulphanylmethyl)-3,3′-dimethyl-[2,2′]binaphthalenyl-1,4,1′,4′-tetraone], the 50% inhibitory concentration (IC50) was determined as 8.5 µM. This IC50 lies about 2.8-fold higher than the previous one.

In general, IC50 refers to the concentration that gives 50% inhibition. A lower IC50 goes with inhibition by little substance.
